According to US20240335390A9, “PHARMACEUTICAL COMPOSITIONS OF AMORPHOUS SOLID DISPERSIONS AND METHODS OF PREPARATION THEREOF” (Shenzhen Pharmacin Co., Ltd., priority 2020, published 2024):
Where two headings read alike, the source gives them in different places.

Legend:
[1] = cited from earlier work
[2] = Kinetic solubility of neratinib maleate ASD powders, pH 4.0 phthalic acid buffer; type: physicochemical; details: pH 4.0 phthalic acid buffer solution, 37 °C, pH 4, aqueous buffer, thermodynamic from solid; crystalline
[3] = cited from earlier work; remark: listed apart in the source
[4] = system: AKT signaling pathway; details: in vitro; cited from earlier work
[5] = system: EGFR and/or HER2 expressing carcinoma cell lines; details: in vitro; cited from earlier work
[6] = system: MAPK signaling pathway; details: in vitro; cited from earlier work
[7] = system: EGFR autophosphorylation; details: in vitro; cited from earlier work
[8] = system: HER2 autophosphorylation; details: in vitro; cited from earlier work
[9] = second value listed in the cell

## Cc1nc(NC(=O)N2CCC[C@H]2C(N)=O)sc1-c1ccnc(C(C)(C)C(F)(F)F)c1 [Alpelisib]
[1]; first value listed in the cell
  Measured or Calculated pKas: 3.3
[1]; [9]
  Measured or Calculated pKas: 9.4

## CC1(C)S[C@@H]2[C@H](NC(=O)[C@H](N)c3ccc(O)cc3)C(=O)N2[C@H]1C(=O)O [Amoxicillin]
[1]; first value listed in the cell
  Measured or Calculated pKas: 3.39
[1]; [9]
  Measured or Calculated pKas: 6.71

## Cn1cc(-c2cc3c(N4CCN(c5ncc([C@@](C)(N)c6ccc(F)cc6)cn5)CC4)ncnn3c2)cn1 [Avapritinib]
[1]; first value listed in the cell
  Measured or Calculated pKas: 6.97
[1]; fourth value listed in the cell
  Measured or Calculated pKas: 1.51
[1]; [9]
  Measured or Calculated pKas: 4.57
[1]; third value listed in the cell
  Measured or Calculated pKas: 3.50

## CCC(C(=O)O)c1ccc(CC(C)C)cc1 (stereo not drawn) [Butibufen]
[1]; first value listed in the cell
  Measured or Calculated pKas: 4.64

## CC(C(=O)O)c1ccc2c(c1)[nH]c1ccc(Cl)cc12 (stereo not drawn) [Carprofen]
[1]; first value listed in the cell
  Measured or Calculated pKas: 4.63

## CN(C)[C@@H]1C(O)=C(C(N)=O)C(=O)[C@@]2(O)C(O)=C3C(=O)c4c(O)ccc(Cl)c4[C@@](C)(O)[C@H]3C[C@@H]12 [Chlortetracycline]
[1]; first value listed in the cell
  Measured or Calculated pKas: 3.33 ± 0.30
[1]; [9]
  Measured or Calculated pKas: 7.55 ± 0.02

## CC[C@H]1OC(=O)[C@H](C)[C@@H](O[C@H]2C[C@@](C)(OC)[C@@H](O)[C@H](C)O2)[C@H](C)[C@@H](O[C@@H]2O[C@H](C)C[C@H](N(C)C)[C@H]2O)[C@](C)(OC)C[C@@H](C)C(=O)[C@H](C)[C@@H](O)[C@]1(C)O [Clarithromycin]
[1]; first value listed in the cell
  Measured or Calculated pKas: 7.25

## CN1C[C@@H]2C[C@H]1CN2c1cc2c(cc1F)c(=O)c(C(=O)O)cn2C1CC1 [Danofloxacin]
[1]; first value listed in the cell
  Measured or Calculated pKas: 6.07 ± 0.06
[1]; [9]
  Measured or Calculated pKas: 8.56 ± 0.07

## CC(O)c1cc(C(=O)N[C@@H](C)Cn2ccc(-c3ccc(C#N)c(Cl)c3)n2)[nH]n1 (stereo partly drawn) [Darolutamide]
[1]; first value listed in the cell
  Measured or Calculated pKas: 11.75

## CN(C)[C@@H]1C(O)=C(C(N)=O)C(=O)[C@@]2(O)C(O)=C3C(=O)c4c(O)ccc(Cl)c4[C@@H](O)[C@H]3C[C@@H]12 [Demeclocycline]
[1]; first value listed in the cell
  Measured or Calculated pKas: 3.37 ± 0.30
[1]; [9]
  Measured or Calculated pKas: 7.36 ± 0.03

## O=C(O)Cc1ccccc1Nc1c(Cl)cccc1Cl [Diclofenac]
[1]; first value listed in the cell
  Measured or Calculated pKas: 4.16

## CN1CCN(c2cc3c(cc2F)c(=O)c(C(=O)O)cn3-c2ccc(F)cc2)CC1 [Difloxacin]
[1]; first value listed in the cell
  Measured or Calculated pKas: 5.66 ± 0.04
[1]; [9]
  Measured or Calculated pKas: 7.24 ± 0.06

## C[C@H]1c2cccc(O)c2C(=O)C2=C(O)[C@]3(O)C(=O)C(C(N)=O)=C(O)[C@@H](N(C)C)[C@@H]3[C@@H](O)[C@@H]21 [Doxycycline]
[1]; first value listed in the cell
  Measured or Calculated pKas: 3.02 ± 0.30
[1]; [9]
  Measured or Calculated pKas: 7.97 ± 0.15

## CCn1cc(C(=O)O)c(=O)c2cc(F)c(N3CCNCC3)nc21 [Enoxacin]
[1]; first value listed in the cell
  Measured or Calculated pKas: 5.05 ± 0.08
[1]; [9]
  Measured or Calculated pKas: 6.25 ± 0.05

## CCN1CCN(c2cc3c(cc2F)c(=O)c(C(=O)O)cn3C2CC2)CC1 [Enrofloxacin]
[1]; first value listed in the cell
  Measured or Calculated pKas: 5.88 ± 0.03
[1]; [9]
  Measured or Calculated pKas: 7.74 ± 0.03

## CNC(=O)c1ccc(N2C(=S)N(c3ccc(C#N)c(C(F)(F)F)c3)C(=O)C2(C)C)cc1F [Enzalutamide]
[1]; first value listed in the cell
  Measured or Calculated pKas: 3-11

## C#Cc1cccc(Nc2ncnc3cc(OCCOC)c(OCCOC)cc23)c1.Cl [Erlotinib]
[1]; first value listed in the cell
  Measured or Calculated pKas: 5.4

## CN1CCN(c2c(F)cc3c(=O)c(C(=O)O)cn(CCF)c3c2F)CC1 [Fleroxacin]
[1]; first value listed in the cell
  Measured or Calculated pKas: 5.46
[1]; [9]
  Measured or Calculated pKas: 8.00

## CC(C(=O)O)c1ccc(-c2ccccc2)c(F)c1 (stereo not drawn) [Flurbiprofen]
[1]; first value listed in the cell
  Measured or Calculated pKas: 4.35

## COc1cc2ncnc(Nc3ccc(F)c(Cl)c3)c2cc1OCCCN1CCOCC1 [Gefitinib]
[1]; first value listed in the cell
  Measured or Calculated pKas: 7.2

## CC(C)Cc1ccc(C(C)C(=O)O)cc1 (stereo not drawn) [Ibuprofen]
[1]; first value listed in the cell
  Measured or Calculated pKas: 4.51

## CC(CCc1ccccc1)NCC(O)c1ccc(O)c(C(N)=O)c1 (stereo not drawn) [Labetalol]
[1]; first value listed in the cell
  Measured or Calculated pKas: 7.35

## CN1CCN(c2c(F)cc3c(=O)c(C(=O)O)cn4c3c2OCN4C)CC1 [Marbofloxacin]
[1]; first value listed in the cell
  Measured or Calculated pKas: 5.69 ± 0.10
[1]; [9]
  Measured or Calculated pKas: 8.02 ± 0.20

## C=C1c2c(Cl)ccc(O)c2C(=O)C2=C(O)[C@]3(O)C(=O)C(C(N)=O)=C(O)[C@@H](N(C)C)[C@@H]3[C@@H](O)[C@H]12 [Meclocycline]
[1]; first value listed in the cell
  Measured or Calculated pKas: 4.05 ± 0.30
[1]; [9]
  Measured or Calculated pKas: 6.87 ± 0.39

## CCOc1cc2ncc(C#N)c(Nc3ccc(OCc4ccccn4)c(Cl)c3)c2cc1NC(=O)/C=C/CN(C)C.O=C(O)/C=C\C(=O)O [Neratinib maleate, (E)-N-(4-((3-chloro-4-(pyridin-2-ylmethoxy)phenyl)amino)-3-cyano-7-ethoxyquinolin-6-yl)-4-(dimethylamino)but-2-enamide maleate]
[2]
  solubility: < 300 µg/mL
[3]; pH 1.2
  solubility: 32900 µg/mL
  solubility according to the product label: sparingly soluble
[3]; pH 5.0
  solubility according to the product label: insoluble
[3]; pH approximately 5.0
  solubility: ≤ 80 µg/mL

## CCOc1cc2ncc(C#N)c(Nc3ccc(OCc4ccccn4)c(Cl)c3)c2cc1NC(=O)/C=C/CN(C)C [Neratinib, neratinib]
[4]
  downstream AKT signaling pathway: reduces
[5]
  antitumor activity in carcinoma cell lines: showed antitumor activity
[6]
  downstream MAPK signaling pathway: reduces
[7]
  EGFR autophosphorylation: reduces
[8]
  HER2 autophosphorylation: reduces

## CC1COc2c(N3CCN(C)CC3)c(F)cc3c(=O)c(C(=O)O)cn1c23 (stereo not drawn) [Ofloxacin]
[1]; first value listed in the cell
  Measured or Calculated pKas: 6.22 ± 0.05
[1]; [9]
  Measured or Calculated pKas: 7.81 ± 0.08

## COc1ccc2[nH]c([S+]([O-])Cc3ncc(C)c(OC)c3C)nc2c1 (stereo not drawn) [Omeprazole]
[1]; first value listed in the cell
  Measured or Calculated pKas: 4.14
[1]; [9]
  Measured or Calculated pKas: 8.90

## C=CCOc1ccccc1OCC(O)CNC(C)C (stereo not drawn) [Oxprenolol]
[1]; first value listed in the cell
  Measured or Calculated pKas: 9.62

## CN(C)[C@@H]1C(O)=C(C(N)=O)C(=O)[C@@]2(O)C(O)=C3C(=O)c4c(O)cccc4[C@@](C)(O)[C@H]3[C@H](O)[C@@H]12 [Oxytetracycline]
[1]; first value listed in the cell
  Measured or Calculated pKas: 3.04
[1]; [9]
  Measured or Calculated pKas: 8.00

## Cc1ccc(Nc2nccc(N(C)c3ccc4c(C)n(C)nc4c3)n2)cc1S(N)(=O)=O.Cl [Pazopanib HCL]
[1]; first value listed in the cell
  Measured or Calculated pKas: 2.1
[1]; [9]
  Measured or Calculated pKas: 6.4
[1]; third value listed in the cell
  Measured or Calculated pKas: 10.2

## CCn1cc(C(=O)O)c(=O)c2cnc(N3CCNCC3)nc21 [Pipemidic acid]
[1]; first value listed in the cell
  Measured or Calculated pKas: 5.42 ± 0.05
[1]; [9]
  Measured or Calculated pKas: 8.18 ± 0.09

## CC(=O)Nc1ccc(OCC(O)CNC(C)C)cc1 (stereo not drawn) [Practolol]
[1]; first value listed in the cell
  Measured or Calculated pKas: 9.41

## CCN(CC)CCOC(=O)c1ccc(N)cc1 [Procaine]
[1]; first value listed in the cell
  Measured or Calculated pKas: 2.28 ± 0.08
[1]; [9]
  Measured or Calculated pKas: 9.02 ± 0.01

## CC(C)NCC(O)COc1cccc2ccccc12 (stereo not drawn) [Propranolol]
[1]; first value listed in the cell
  Measured or Calculated pKas: 9.49 ± 0.2

## CC[C@H]1OC(=O)[C@H](C)[C@@H](OC2C[C@@](C)(OC)C(O)C(C)O2)[C@H](C)[C@@H](O[C@@H]2OC(C)CC(N(C)C)C2O)[C@](C)(O)C[C@@H](C)/C(=N\OCOCCOC)[C@H](C)[C@@H](O)[C@]1(C)O (stereo partly drawn) [Roxithromycin]
[1]; first value listed in the cell
  Measured or Calculated pKas: 9.17 ± 0.30

## O=C(O)c1cn(-c2ccc(F)cc2)c2cc(N3CCNCC3)c(F)cc2c1=O [Sarafloxacin]
[1]; first value listed in the cell
  Measured or Calculated pKas: 5.62 ± 0.08
[1]; [9]
  Measured or Calculated pKas: 8.18 ± 0.09

## CC(=O)NS(=O)(=O)c1ccc(N)cc1 [Sulfacetamide]
[1]; first value listed in the cell
  Measured or Calculated pKas: 1.95 ± 0.11
[1]; [9]
  Measured or Calculated pKas: 5.30 ± 0.05

## Nc1ccc(S(=O)(=O)Nc2ccc(Cl)nn2)cc1 [Sulfachlorpyridazine]
[1]; first value listed in the cell
  Measured or Calculated pKas: 1.87 ± 0.30
[1]; [9]
  Measured or Calculated pKas: 5.45 ± 0.06

## Nc1ccc(S(=O)(=O)Nc2ncccn2)cc1 [Sulfadiazine]
[1]; first value listed in the cell
  Measured or Calculated pKas: 2.10
[1]; [9]
  Measured or Calculated pKas: 6.28

## [H]/N=C(/N)NS(=O)(=O)c1ccc(N)cc1 [Sulfaguanidine]
[1]; first value listed in the cell
  Measured or Calculated pKas: 1.55
[1]; [9]
  Measured or Calculated pKas: 11.24

## Cc1ccnc(NS(=O)(=O)c2ccc(N)cc2)n1 [Sulfamerazine]
[1]; first value listed in the cell
  Measured or Calculated pKas: 2.17
[1]; [9]
  Measured or Calculated pKas: 6.77

## Cc1cc(C)nc(NS(=O)(=O)c2ccc(N)cc2)n1 [Sulfamethazine]
[1]; first value listed in the cell
  Measured or Calculated pKas: 2.28
[1]; [9]
  Measured or Calculated pKas: 7.42

## Cc1nnc(NS(=O)(=O)c2ccc(N)cc2)s1 [Sulfamethizole]
[1]; first value listed in the cell
  Measured or Calculated pKas: 1.86 ± 0.30
[1]; [9]
  Measured or Calculated pKas: 5.29 ± 0.04

## Nc1ccc(S(=O)(=O)Nc2nccs2)cc1 [Sulfathiazole]
[1]; first value listed in the cell
  Measured or Calculated pKas: 2.08
[1]; [9]
  Measured or Calculated pKas: 7.07

## CC(C)(C)NC[C@H](O)COc1nsnc1N1CCOCC1 [Timolol]
[1]; first value listed in the cell
  Measured or Calculated pKas: 9.34

## COc1cc(Cc2cnc(N)nc2N)cc(OC)c1OC [Trimethoprim]
[1]; first value listed in the cell
  Measured or Calculated pKas: 3.23 ± 0.30
[1]; [9]
  Measured or Calculated pKas: 6.76 ± 0.12

## Fenbufen
[1]; first value listed in the cell
  Measured or Calculated pKas: 4.56

## Tylosin
[1]; first value listed in the cell
  Measured or Calculated pKas: 3.31 ± 0.30
[1]; [9]
  Measured or Calculated pKas: 7.50 ± 0.13
